Results published in PMC10746189, “Campylobacter jejuni uses energy taxis and a dehydrogenase enzyme for L-fucose chemotaxis” (mBio, 2023).

Target: T1, FucX (Campylobacter jejuni, UniProt Q0PB28)
T1 construct: gene Cj0485; His-tagged FucX from pET30a(+)-fucX, expressed in E. coli BL21, Ni-NTA purified, desalted
Assay: dehydrogenase assay, NADPH absorbance at […] nm
Assay type: biochemical
Settings: 5 nM protein; 1 mM L-fucose; 100 µM NADP+; 1 mM MgCl2; 50 mM Tris-HCl pH 7.5; room temperature

T1 sequence (Q0PB28 entry or part of it): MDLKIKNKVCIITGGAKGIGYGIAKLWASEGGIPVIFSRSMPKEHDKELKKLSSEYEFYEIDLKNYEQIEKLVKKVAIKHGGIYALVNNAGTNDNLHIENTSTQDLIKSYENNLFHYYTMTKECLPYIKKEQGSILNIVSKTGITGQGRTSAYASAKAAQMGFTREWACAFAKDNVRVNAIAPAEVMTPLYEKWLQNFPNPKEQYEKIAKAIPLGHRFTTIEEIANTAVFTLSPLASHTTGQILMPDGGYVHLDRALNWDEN

## C[C@@H]1OC(O)[C@@H](O)[C@H](O)[C@@H]1O (stereo partly drawn) [L-fucose]
  dehydrogenase assay, NADPH absorbance at 340 nm: L-Fucose dehydrogenase activity of indicated FucX pure proteins: (+), with L-fucose; (−), no L-fucose.
